Results: ChEMBL document CHEMBL4396865, “Current advances of triazole alcohols derived from fluconazole: Design, in vitro and in silico studies” (2019)
In brackets after ≈: the same amount, converted by molar mass.

Assays:
Assay type in all cases: functional
Trichophyton rubrum = experiment: Antifungal activity against Trichophyton rubrum after 7 days by NCCLS protocol based method; conditions: 168 h
Fonsecaea compacta = experiment: Antifungal activity against Fonsecaea compacta after 24 hrs by NCCLS protocol based method
Candida parapsilosis = experiment: Antifungal activity against Candida parapsilosis after 24 hrs by NCCLS protocol based method; conditions: Lodderomyces parapsilosis
Cryptococcus neoformans = experiment: Antifungal activity against Cryptococcus neoformans after 72 hrs by NCCLS protocol based method
Candida albicans = experiment: Antifungal activity against Candida albicans after 24 hrs by NCCLS protocol based method
Candida tropicalis = experiment: Antifungal activity against Candida tropicalis after 24 hrs by NCCLS protocol based method
Nannizzia gypsea = experiment: Antifungal activity against Microsporum gypseum after 7 days by NCCLS protocol based method; conditions: 168 h

MIC80 (Trichophyton rubrum)	MIC80 (Fonsecaea compacta)	MIC80 (Candida parapsilosis)	MIC80 (Cryptococcus neoformans)	MIC80 (Candida albicans)	MIC80 (Candida tropicalis)	MIC (Trichophyton rubrum)	MIC (Nannizzia gypsea)	MIC (Cryptococcus neoformans)	MIC (Candida albicans)	MIC (Candida tropicalis)	SMILES
0.0039 to 0.0625 µg/mL (≈ 0.00829 to 0.133 µM)	0.0039 to 0.0625 µg/mL (≈ 0.00829 to 0.133 µM)	0.0039 to 0.0625 µg/mL (≈ 0.00829 to 0.133 µM)	0.0039 to 0.0625 µg/mL (≈ 0.00829 to 0.133 µM)	0.0039 to 0.0625 µg/mL (≈ 0.00829 to 0.133 µM)	0.0039 to 0.0625 µg/mL (≈ 0.00829 to 0.133 µM)						CCc1ccc(C(=O)OC2CCN(CC(O)(Cn3cncn3)c3ccc(F)cc3F)CC2)cc1 (stereo not drawn)
						0.001 to 0.016 µg/mL (≈ 0.00231 to 0.037 µM)	0.001 to 0.016 µg/mL (≈ 0.00231 to 0.037 µM)	0.001 to 0.016 µg/mL (≈ 0.00231 to 0.037 µM)	0.001 to 0.016 µg/mL (≈ 0.00231 to 0.037 µM)	0.001 to 0.016 µg/mL (≈ 0.00231 to 0.037 µM)	COc1ccc(OCCCN(C)CC(O)(Cn2cncn2)c2ccc(F)cc2F)cc1 (stereo not drawn)
0.0039 to 0.0625 µg/mL (≈ 0.00763 to 0.122 µM)	0.0039 to 0.0625 µg/mL (≈ 0.00763 to 0.122 µM)	0.0039 to 0.0625 µg/mL (≈ 0.00763 to 0.122 µM)	0.0039 to 0.0625 µg/mL (≈ 0.00763 to 0.122 µM)	0.0039 to 0.0625 µg/mL (≈ 0.00763 to 0.122 µM)	0.0039 to 0.0625 µg/mL (≈ 0.00763 to 0.122 µM)						O=C(OC1CCN(CC(O)(Cn2cncn2)c2ccc(F)cc2F)CC1)c1ccc(Cl)cc1Cl (stereo not drawn)
0.0039 to 0.0625 µg/mL (≈ 0.00776 to 0.124 µM)	0.0039 to 0.0625 µg/mL (≈ 0.00776 to 0.124 µM)	0.0039 to 0.0625 µg/mL (≈ 0.00776 to 0.124 µM)	0.0039 to 0.0625 µg/mL (≈ 0.00776 to 0.124 µM)	0.0039 to 0.0625 µg/mL (≈ 0.00776 to 0.124 µM)	0.0039 to 0.0625 µg/mL (≈ 0.00776 to 0.124 µM)						COc1ccc(C(=O)OC2CCN(CC(O)(Cn3cncn3)c3ccc(F)cc3F)CC2)cc1OC (stereo not drawn)
						0.0625 µg/mL (≈ 0.0886 µM)	0.0625 µg/mL (≈ 0.0886 µM)	0.0625 µg/mL (≈ 0.0886 µM)	0.0625 µg/mL (≈ 0.0886 µM)	0.0625 µg/mL (≈ 0.0886 µM)	CCC(C)n1ncn(-c2ccc(N3CCN(c4ccc(OCC5COC(Cn6cncn6)(c6ccc(Cl)cc6Cl)O5)cc4)CC3)cc2)c1=O (stereo not drawn) [ITRACONAZOLE]
0.0039 to 0.0625 µg/mL (≈ 0.00818 to 0.131 µM)	0.0039 to 0.0625 µg/mL (≈ 0.00818 to 0.131 µM)	0.0039 to 0.0625 µg/mL (≈ 0.00818 to 0.131 µM)	0.0039 to 0.0625 µg/mL (≈ 0.00818 to 0.131 µM)	0.0039 to 0.0625 µg/mL (≈ 0.00818 to 0.131 µM)	0.0039 to 0.0625 µg/mL (≈ 0.00818 to 0.131 µM)						O=C(OC1CCN(CC(O)(Cn2cncn2)c2ccc(F)cc2F)CC1)c1ccc(Cl)cc1 (stereo not drawn)
0.0039 to 0.0625 µg/mL (≈ 0.00761 to 0.122 µM)	0.0039 to 0.0625 µg/mL (≈ 0.00761 to 0.122 µM)	0.0039 to 0.0625 µg/mL (≈ 0.00761 to 0.122 µM)	0.0039 to 0.0625 µg/mL (≈ 0.00761 to 0.122 µM)	0.0039 to 0.0625 µg/mL (≈ 0.00761 to 0.122 µM)	0.0039 to 0.0625 µg/mL (≈ 0.00761 to 0.122 µM)						CCCCCc1ccc(C(=O)OC2CCN(CC(O)(Cn3cncn3)c3ccc(F)cc3F)CC2)cc1 (stereo not drawn)

Continued, compound first:

SMILES	MIC80 (Trichophyton rubrum)	MIC80 (Fonsecaea compacta)	MIC80 (Candida parapsilosis)	MIC80 (Cryptococcus neoformans)	MIC80 (Candida albicans)	MIC80 (Candida tropicalis)	MIC (Trichophyton rubrum)	MIC (Nannizzia gypsea)	MIC (Cryptococcus neoformans)	MIC (Candida albicans)	MIC (Candida tropicalis)
O=C(OC1CCN(CC(O)(Cn2cncn2)c2ccc(F)cc2F)CC1)c1cccc(C(F)(F)F)c1 (stereo not drawn)	0.0039 to 0.0625 µg/mL (≈ 0.00764 to 0.122 µM)	0.0039 to 0.0625 µg/mL (≈ 0.00764 to 0.122 µM)	0.0039 to 0.0625 µg/mL (≈ 0.00764 to 0.122 µM)	0.0039 to 0.0625 µg/mL (≈ 0.00764 to 0.122 µM)	0.0039 to 0.0625 µg/mL (≈ 0.00764 to 0.122 µM)	0.0039 to 0.0625 µg/mL (≈ 0.00764 to 0.122 µM)					
O=C(OC1CCN(CC(O)(Cn2cncn2)c2ccc(F)cc2F)CC1)c1cccc(F)c1 (stereo not drawn)	0.0039 to 0.0625 µg/mL (≈ 0.00847 to 0.136 µM)	0.0039 to 0.0625 µg/mL (≈ 0.00847 to 0.136 µM)	0.0039 to 0.0625 µg/mL (≈ 0.00847 to 0.136 µM)	0.0039 to 0.0625 µg/mL (≈ 0.00847 to 0.136 µM)	0.0039 to 0.0625 µg/mL (≈ 0.00847 to 0.136 µM)	0.0039 to 0.0625 µg/mL (≈ 0.00847 to 0.136 µM)					
O=C(OC1CCN(CC(O)(Cn2cncn2)c2ccc(F)cc2F)CC1)c1ccc([N+](=O)[O-])cc1 (stereo not drawn)	0.0039 to 0.0625 µg/mL (≈ 0.008 to 0.128 µM)	0.0039 to 0.0625 µg/mL (≈ 0.008 to 0.128 µM)	0.0039 to 0.0625 µg/mL (≈ 0.008 to 0.128 µM)	0.0039 to 0.0625 µg/mL (≈ 0.008 to 0.128 µM)	0.0039 to 0.0625 µg/mL (≈ 0.008 to 0.128 µM)	0.0039 to 0.0625 µg/mL (≈ 0.008 to 0.128 µM)					
CN(CCCCOc1cccc([N+](=O)[O-])c1)CC(O)(Cn1cncn1)c1ccc(F)cc1F (stereo not drawn)							0.001 to 0.016 µg/mL (≈ 0.00217 to 0.0347 µM)	0.001 to 0.016 µg/mL (≈ 0.00217 to 0.0347 µM)	0.001 to 0.016 µg/mL (≈ 0.00217 to 0.0347 µM)	0.001 to 0.016 µg/mL (≈ 0.00217 to 0.0347 µM)	0.001 to 0.016 µg/mL (≈ 0.00217 to 0.0347 µM)
